The values that follow come from patent US9365522B2, “Pyrazole amide derivative” (AMGEN INC., priority 2015, dated 2016).

In the assay the target is T1, human RORγ-LBD (Homo sapiens, UniProt P51449).
T1 construct: made in house; host or cells: E. coli (BL-21)
T1 sequence (P51449 262-518): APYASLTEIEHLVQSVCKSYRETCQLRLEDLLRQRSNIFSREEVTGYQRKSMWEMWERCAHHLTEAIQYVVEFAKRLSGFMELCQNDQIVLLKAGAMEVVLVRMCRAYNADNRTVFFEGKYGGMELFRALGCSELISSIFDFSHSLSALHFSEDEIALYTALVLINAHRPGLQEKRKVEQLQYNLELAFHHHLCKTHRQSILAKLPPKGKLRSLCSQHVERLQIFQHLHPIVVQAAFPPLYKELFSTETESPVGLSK
The assay is described as follows: ROR gamma coactivator peptide recruitment Alphascreen assay (RORγ-LBD binding to GRIP1 coactivator peptide). Format: biochemical. The conditions noted are these: 5 nM human RORγ-LBD, 30 nM 7-β-hydroxycholesterol, 50 nM biotinylated GRIP1 coactivator peptide, overnight incubation at room temperature; read-out: result (pIC50, RORγ coactivator peptide recruitment Alphascreen assay) (converted). In outline: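 Alphascreen proximity read-out after overnight room-temperature incubation, yielding pIC50 from 1-in-2 compound series (2.5% DMSO final). Mixture: 50 nM biotin-GRIP1 peptide, 30 nM 7-β-hydroxycholesterol agonist, 5 nM recombinant 6×His:Flag human RORγ-LBD (aa 262-518), 50 mM HEPES pH 7.4.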
On to `CC(C)(C)CN(CC(=O)c1c(Cl)cncc1Cl)C(=O)c1cnn([C@@H]2CC[C@]3(C(=O)O)CCC[C@@H]3C2)c1C(F)(F)F` [Example 877, (3aR,6R,7aR)-6-(4-((2-(3,5-dichloropyridin-4-yl)-2-oxoethyl)(neopentyl)carbamoyl)-5-(trifluoromethyl)-1H-pyrazol-1-yl)octahydro-1H-indene-3a-carboxylic acid], for which the IC50 was 6.17 nM. In the case of `C[C@@H]1C[C@H](n2ncc(C(=O)N(CC(=O)c3c(Cl)cncc3Cl)CC(C)(C)C(F)(F)F)c2C(F)(F)F)CC[C@H]1C(=O)O` [Example 878, (1R,2R,4R)-4-(4-((2-(3,5-dichloro-4-pyridinyl)-2-oxoethyl)(3,3,3-trifluoro-2,2-dimethylpropyl)carbamoyl)-5-(trifluoromethyl)-1H-pyrazol-1-yl)-2-methylcyclohexanecarboxylic acid], the IC50 was 3.89 nM. Take `C[C@@H]1C[C@H](n2ncc(C(=O)N(CC(=O)c3c(Cl)cncc3Cl)C[C@]34CC[C@H](CC3)O4)c2C(F)(F)F)CC[C@H]1C(=O)O` [Example 880, (1R,2R,4R)-4-(4-((2-(3,5-dichloro-4-pyridinyl)-2-oxoethyl)((1s,4s)-7-oxabicyclo[2.2.1]hept-1-ylmethyl)carbamoyl)-5-(trifluoromethyl)-1H-pyrazol-1-yl)-2-methylcyclohexanecarboxylic acid]: the IC50 is 16.2 nM.

In the case of `C[C@H]1C[C@@H](n2ncc(C(=O)N(CC(=O)c3c(Cl)cncc3Cl)C[C@]34CC[C@H](CC3)O4)c2C(F)(F)F)CC[C@@H]1C(=O)O` [Example 881, (1S,2S,4S)-4-(4-((2-(3,5-dichloro-4-pyridinyl)-2-oxoethyl)((1s,4s)-7-oxabicyclo[2.2.1]hept-1-ylmethyl)carbamoyl)-5-(trifluoromethyl)-1H-pyrazol-1-yl)-2-methylcyclohexanecarboxylic acid], the IC50 is 24.5 nM. As for `C[C@@H]1C[C@@](C)(C(=O)O)CC[C@@H]1n1ncc(C(=O)N(CC(=O)c2c(Cl)cncc2Cl)CC(C)(C)C)c1C(F)(F)F` [Example 882, (1S,3R,4S)-4-(4-((2-(3,5-dichloro-4-pyridinyl)-2-oxoethyl)(2,2-dimethylpropyl)carbamoyl)-5-(trifluoromethyl)-1H-pyrazol-1-yl)-1,3-dimethylcyclohexanecarboxylic acid], the IC50 was 646 nM.

Consider `C[C@H]1C[C@](C)(C(=O)O)CC[C@H]1n1ncc(C(=O)N(CC(=O)c2c(Cl)cncc2Cl)CC(C)(C)C)c1C(F)(F)F` [Example 883, (1R,3S,4R)-4-(4-((2-(3,5-dichloro-4-pyridinyl)-2-oxoethyl)(2,2-dimethylpropyl)carbamoyl)-5-(trifluoromethyl)-1H-pyrazol-1-yl)-1,3-dimethylcyclohexanecarboxylic acid], for which the IC50 was 708 nM. The value for `CC(C)(CN(CC(=O)c1c(Cl)cncc1Cl)C(=O)c1cnn([C@H]2CC[C@H](CC(=O)O)CC2)c1C(F)(F)F)C(F)(F)F` [Example 884, (trans-4-(4-((2-(3,5-dichloro-4-pyridinyl)-2-oxoethyl)(3,3,3-trifluoro-2,2-dimethylpropyl)carbamoyl)-5-(trifluoromethyl)-1H-pyrazol-1-yl)cyclohexyl)acetic acid] was 1.82 nM; that for `CC(C)(C)CN(CCc1c(Cl)c[nH]c(=O)c1Cl)C(=O)c1cnn([C@H]2CC[C@](C)(C(=O)O)CC2)c1C(F)(F)F` [Example 885, trans-4-(4-((2-(3,5-dichloro-2-oxo-1,2-dihydro-4-pyridinyl)ethyl)(2,2-dimethylpropyl)carbamoyl)-5-(trifluoromethyl)-1H-pyrazol-1-yl)-1-methylcyclohexanecarboxylic acid] was 741 nM. As for `C[C@@H]1C[C@@H](n2ncc(C(=O)N(CCc3c(Cl)c[nH]c(=O)c3Cl)CC(C)(C)C)c2C(F)(F)F)CC[C@@H]1C(=O)O` [Example 886, (1S,2R,4S)-4-(4-((2-(3,5-dichloro-2-oxo-1,2-dihydro-4-pyridinyl)ethyl)(2,2-dimethylpropyl)carbamoyl)-5-(trifluoromethyl)-1H-pyrazol-1-yl)-2-methylcyclohexane carboxylic acid], the IC50 is 468 nM. Regarding `COc1ncc(Cl)c(CCN(CC(C)(C)C)C(=O)c2cnn([C@H]3CC[C@H](C(=O)O)[C@H](C)C3)c2C(F)(F)F)c1Cl` [Example 887, (1S,2R,4S)-4-(4-((2-(3,5-dichloro-2-methoxy-4-pyridinyl)ethyl)(2,2-dimethylpropyl)carbamoyl)-5-(trifluoromethyl)-1H-pyrazol-1-yl)-2-methylcyclohexanecarboxylic acid], the IC50 was 16.2 nM.

Take `COc1cc(Cl)c(C(=O)CN(CC2(F)CCCC2)C(=O)c2cnn([C@H]3CC[C@H](CC(=O)O)CC3)c2C(F)(F)F)c(Cl)c1` [Example 888, (trans-4-(4-((2-(2,6-dichloro-4-methoxyphenyl)-2-oxoethyl)((1-fluorocyclopentyl)methyl)carbamoyl)-5-(trifluoromethyl)-1H-pyrazol-1-yl)cyclohexyl)acetic acid]: the IC50 is 3.24 nM. For `COc1cc(Cl)c(C(=O)CN(Cc2ccc(F)cc2)C(=O)c2cnn([C@H]3CC[C@H](CC(=O)O)CC3)c2C(F)(F)F)c(Cl)c1` [Example 889, (trans-4-(4-((2-(2,6-dichloro-4-methoxyphenyl)-2-oxoethyl)(4-fluorobenzyl)carbamoyl)-5-(trifluoromethyl)-1H-pyrazol-1-yl)cyclohexyl)acetic acid], the IC50 is 2.04 nM. On to `Cc1cc(Cl)c(C(=O)CN(CC2(C)CCC2)C(=O)c2cnn([C@H]3CC[C@H](CC(=O)O)CC3)c2C(F)(F)F)c(Cl)c1` [Example 890, (trans-4-(4-((2-(2,6-dichloro-4-methylphenyl)-2-oxoethyl)((1-methylcyclobutyl)methyl)carbamoyl)-5-(trifluoromethyl)-1H-pyrazol-1-yl)cyclohexyl)acetic acid], for which the IC50 is 0.708 nM. `COc1cc(Cl)c(C(=O)CN(CC2CCC3(CCC3)CC2)C(=O)c2cnn([C@H]3CC[C@@](C)(C(=O)O)CC3)c2C(F)(F)F)c(Cl)c1` [Example 891, trans-4-(4-((2-(2,6-dichloro-4-methoxyphenyl)-2-oxoethyl)(spiro[3.5]non-7-ylmethyl)carbamoyl)-5-(trifluoromethyl)-1 H-pyrazol-1-yl)-1 - methylcyclohexanecarboxylic acid]: the IC50 was 15.5 nM. The value for `CC(C)(C)CN(CCc1c(Cl)cn2ncnc2c1Cl)C(=O)c1cnn([C@H]2CC[C@](C)(C(=O)O)CC2)c1C(F)(F)F` [Example 892, trans-4-(4-((2-(6,8-dichloro[1,2,4]triazolo[1,5-a]pyridin-7-yl)ethyl)(2,2-dimethylpropyl)carbamoyl)-5-(trifluoromethyl)-1H-pyrazol-1-yl)-1-methylcyclohexanecarboxylic acid] was 302 nM. Regarding `CC(C)(CN(CC(=O)c1c(Cl)cccc1Cl)C(=O)c1cnn([C@H]2CC[C@](C)(C(=O)O)CC2)c1C(F)(F)F)C(F)(F)F` [Example 893, trans-4-(4-((2-(2,6-dichlorophenyl)-2-oxoethyl)(3,3,3-trifluoro-2,2-dimethylpropyl)carbamoyl)-5-(trifluoromethyl)-1H-pyrazol-1-yl)-1-methylcyclohexanecarboxylic acid], the IC50 was 2.24 nM.
